Experiments:
[1] = test system: rhinovirus B14; experiment: Antiviral activity against HRV14 with 3C protease T131A mutation infected in human H1-HeLa cells assessed as virus-induced cytopathic effect after 3 days by XTT assay; type: functional, organism-based; conditions: Rhinovirus B, 72 h
[2] = test system: rhinovirus A2; experiment: Ratio of EC50 for HRV2 with 3C protease N165T mutation infected in human H1-HeLa cells after 3 passages for 24 days to EC50 for wild type HRV2 infected in human H1-HeLa cells; type: functional
[3] = test system: rhinovirus A39; experiment: Ratio of EC50 for HRV39 infected in human H1-HeLa cells after 2 passages for 12 days to EC50 for wild type HRV39 infected in human H1-HeLa cells; type: functional
[4] = test system: rhinovirus A2; experiment: Antiviral activity against HRV2 with 3C protease N165T mutation infected in human H1-HeLa cells assessed as virus-induced cytopathic effect after 6 passages for 37 days by XTT assay; type: functional, organism-based; conditions: Rhinovirus A
[5] = test system: rhinovirus B14; experiment: Ratio of EC50 for HRV14 infected in human H1-HeLa cells after 7 passages for 33 days to EC50 for wild type HRV14 infected in human H1-HeLa cells; type: functional
[6] = test system: rhinovirus B14; experiment: Ratio of EC50 for HRV14 infected in human H1-HeLa cells after 8 passages for 40 days to EC50 for wild type HRV14 infected in human H1-HeLa cells; type: functional
[7] = test system: rhinovirus A39; experiment: Antiviral activity against wild type HRV39 infected in human H1-HeLa cells assessed as virus-induced cytopathic effect after 3 days by XTT assay; type: functional, organism-based; conditions: Rhinovirus A, 72 h
[8] = test system: rhinovirus B14; experiment: Antiviral activity against HRV14 with 3C protease T129T/A, T131T/A, T143P/S mutation infected in human H1-HeLa cells assessed as virus-induced cytopathic effect after 3 passages for 14 days by XTT assay; type: functional, organism-based; conditions: Rhinovirus B, 336 h
[9] = test system: rhinovirus A2; experiment: Antiviral activity against HRV2 with 3C protease N165T mutation infected in human H1-HeLa cells assessed as virus-induced cytopathic effect after 5 passages for 30 days by XTT assay; type: functional, organism-based; conditions: Rhinovirus A
[10] = test system: Human rhinovirus sp.; experiment: Antiviral activity against wild type HRV Hanks infected in human H1-HeLa cells assessed as virus-induced cytopathic effect after 4 days by plaque reduction assay; type: functional, organism-based; conditions: 96 h
[11] = test system: Human rhinovirus sp.; experiment: Ratio of EC50 for HRV Hanks infected in human H1-HeLa cells after 2 passage for 17 days to EC50 for wild type HRV Hanks infected in human H1-HeLa cells; type: functional
[12] = test system: rhinovirus B14; experiment: Antiviral activity against HRV14 with 3C protease A121A/V, T129A, T131A, N132S, Y139Y/H, T143P mutation infected in human H1-HeLa cells assessed as virus-induced cytopathic effect after 12 passages for 72 days by XTT assay; type: functional, organism-based; conditions: Rhinovirus B
[13] = test system: rhinovirus A2; experiment: Ratio of EC50 for HRV2 infected in human H1-HeLa cells after 5 passages for 30 days to EC50 for wild type HRV2 infected in human H1-HeLa cells; type: functional
[14] = test system: rhinovirus A39; experiment: Ratio of EC50 for HRV39 infected in human H1-HeLa cells after 1 passage for 7 days to EC50 for wild type HRV39 infected in human H1-HeLa cells; type: functional

Q: Which EC50 [1] does the source give for CCOC(=O)/C=C/[C@H](C[C@@H]1CCNC1=O)NC(=O)[C@@H](CC(=O)[C@@H](NC(=O)c1cc(C)on1)C(C)C)Cc1ccc(F)cc1 [RUPINTRIVIR] here?
A: 14 nM

Q: What about the “Ratio EC50” value [2] of the same compound?
A: 1

Q: What about the “Ratio EC50” value [3] of the same compound?
A: 4

Q: And the EC50 [4]?
A: 67 nM

Q: And the “Ratio EC50” value [5]?
A: 30

Q: And the “Ratio EC50” value [6]?
A: 40

Q: And the EC50 [7]?
A: 24 nM

Q: And the EC50 [8]?
A: 152 nM

Q: What about the EC50 [9] of the same compound?
A: 57 nM

Q: What about the EC50 [10] of the same compound?
A: 19 nM

Q: What about the “Ratio EC50” value [11] of the same compound?
A: 2

Q: What about the EC50 [12] of the same compound?
A: 414 nM

Q: What about the “Ratio EC50” value [13] of the same compound?
A: 5

Q: What about the “Ratio EC50” value [14] of the same compound?
A: 3
